Assay results from patent publication US20170112748A1, “N-ACYLPEPTIDE DERIVATIVES AND THEIR USES” (NeoStrata Company, Inc., priority 2012, published 2017).

Tests used:
Assay type in all cases: in vivo, human
[1] = summary of test results in volunteer subjects, efficacy grades; conditions: efficacy grade
From the text: Subject 1. Person had multiple red and itchy inflammation, dermatitis, or eczema lesions, which were resistant to conventional treatments including corticosteroids. Subject 2. Person had small red and itchy lesions which were resistant to topical corticosteroid treatment. Subject 3. Person had multiple red and itchy inflammation, dermatitis, or eczema lesions over the body for many years, which were resistant to conventional treatments including corticosteroids. Subject 4. Person had red and itchy inflammation, dermatitis, or eczema lesions for many years, which were resistant to topical corticosteroid treatment. Subject 5. Person had early stage of aging related skin changes on both forearms as indicated by age spots and wrinkled skin caused by solar damage. Subject 6. Person had age spots, keratoses and wrinkles on both forearms caused by intrinsic and extrinsic aging. Subject 7. Person had age spots, and wrinkles on both forearms caused by intrinsic and extrinsic aging. Subject 8. Person had osteoarthritis of both knees with inflammation and pain for more than 4 years, and had only mild transitory relief from conventional treatments. Subject 9. Person had sensitive skin with inflammatory lesions on the body. Subject 12. Person had dermatitis and inflammatory lesions on the left palm. Subject 14. Person had multiple age spots including lentigines and keratosis on their face. Subject 15. Person had psorisis Subject 16. Person had sensitive skin and eczema for more than 40 years
In another embodiment, the volunteer subject topically applied the test compositions containing N-acylpeptide derivatives of the present invention on involved skin or lesions once or twice daily for several weeks or until the involved lesions completely cleared and clinically changed to normal skin. As a control study, the subject also topically applied a vehicle control composition on the involved skin or lesions twice daily for the same period.
In yet another embodiment, the volunteer subject topically applied once or twice daily the test compositions containing N-acylpeptide derivatives of the present invention on the skin site above arthritic joints or painful muscles to provide therapeutic effects for the systemic disorders via topical administration.
In yet another embodiment, the volunteer subject injected intra-articularly into a knee joint a test composition containing a N-acylpeptide derivative of the present invention to improve and reduce arthritic inflammation and pain of the joint.
Some test results are summarized as follows.
DK: Disturbed keratinization AG: Aging related changes of skin, nail and hair DI: Deranged immune disorders and inflammation ND: Nerve disorders CA: Tumors and/or cancers

[2] = appetite for food after topical application on forehead; conditions: Example 12: subject, 0.3% (w/v) in WEP442 once on forehead one hour before dinner
Protocol: A subject, having normal and regular eating habit, topically applied once N-Ac-L-Tyr-L-Tyr-L-Tyr-NH2, 0.3% (w/v) in WEP442, pH 5.9 prepared according to Example 2 on their forehead one hour before the regular dinner time. After about 50-60 minutes of the topical application, the subject strated to feel loss of appetite for food.

[3] = topical treatment of chronic inflammation, erythema, eczema with thick scales and itch, clinical evaluation; conditions: Example 10: subject, -NH2 0.3% and -OEt 0.5% (w/v) in WEP442
From the text: The involved skin was divided into two lesions for testing. The subject topically applied twice daily to one lesion, N-Ac-L-Tyr-L-Tyr-L-Tyr-NH2 0.3% (w/v) in WEP442, pH 5.9 solution composition, prepared according to Example 2, and to second lesion, N-Ac-L-Tyr-L-Tyr-L-Tyr-OEt 0.5% (w/v) in WEP 442, pH 6.0, prepared according to Example 2. […] The treated skin had 90-95% improvement as judged by clinical evaluation.

[4] = topical treatment of plaque psoriasis, clinical evaluation; conditions: Example 13: subject, 0.2% (w/w) in cream twice daily, 3 weeks
From the text: A subject, having plaque psoriasis, topically applied twice daily N-Ac-L-Tyr-L-Tyr-L-Tyr-NH2 0.2% (w/w) in cream to plaque lesions for 3 weeks. The treated lesions started to improve after a few days of topical application. […] The treated lesions had 40-50% improvement as judged by clinical evaluation.

[5] = skin plump / skin thickness test after topical application, caliper measurement
Protocol: In one of the studies related to skin changes associated with aging, skin thickness was measured by micrometer calipers as follows.
The skin was grasped with a 2×6 cm metal hinge: the internal faces of which were coated with emery cloth to prevent slippage, and manually squeezed to threshold subject discomfort. Combined thickness of two whole-skin layers including thickness of the two hinge leaves was measured with micrometer calipers. Thickness of the two hinge leaves was subtracted to determine the actual thickness of two whole-skin layers. Triplicate measurements on treated sites were done and an average number was used for calculation of the skin thickness.
In other studies, test sites of skin 17 mm in diameter were used, the circular sites were marked with permanent ink. Intervening control sites were also 17 mm in diameter. Thickness of skin of all sites was measured directly by means of an electronic digital caliper. In this instance the jaws of the caliper were opened to 17 mm, applied with pressure to the skin sites and then closed to firm tightness. Thickness of skin was then read off the screen of the calipers. Measurements of all sites were made in triplicates. […]

[6] = topical treatment of bilateral inter-metacarpal atrophy of hands; conditions: Example 23: subject, 1% (w/v) in WEP442 twice daily after the first course
From the text: A subject had bilateral inter-metacarpal atrophy of both hands with certain restrictions of hand movements. The subject topically applied two to three times daily N-Ac-L-Tyr-L-Tyr-L-Tyr-OEt, 2% (w/v) in EP73 on the back of their left hand, and vehicle control EP73 on the back of their right hand for three weeks.
The subject now, topically applied twice daily N-Ac-L-Tyr-L-Tyr-L-Tyr-NH2, 1% (w/v) in WEP442 on the back of their left hand as a mantenace therapy.

[7] = anxiety, stress and mood disorders after topical application on forehead; conditions: Example 16: subject, 0.2% in WEP442 on forehead, after two hours
From the text: A subject had mild forms of anxiety, stress and mood disorders which provoked restlessness, lack of concentration, and mild depression. […] The subject then topically applied N-Ac-L-Val-L-Tyr-L-Tyr-NH2, 0.2% in WEP442 on their forehead.

[8] = topical treatment of chronic dermatoses with scaly skin and itch, clinical evaluation; conditions: Example 11: subject
From the text: The subject topically applied twice daily a pentapeptide derivative, N-Ac-L-Ala-L-Leu-L-Lys-L-His-L-Arg-NH2 (SEQ ID NO: 51) 0.2% (w/v) in WEP442, pH 3.4, as prepared in Example 2. […] The treated skin had 80-90% improvement as judged by clinical evaluation.

Row | Substance | AG: Aging related changes of skin, nail and hair [1] | DI: Deranged immune disorders and inflammation [1] | DK: Disturbed keratinization [1] | ND: Nerve disorders [1] | also measured
1 | N-Ac-L-Arg-L-Arg-L-Arg-NH2 | 2+ (2+: 50% Efficacy) | 2+ (2+: 50% Efficacy) | 2+ (2+: 50% Efficacy) | 2+ (2+: 50% Efficacy) | –
2 | N-Ac-L-Tyr-L-Tyr-L-Tyr-NH2 | 4+ (4+: 95-100% Efficacy) | 4+ (4+: 95-100% Efficacy) | 4+ (4+: 95-100% Efficacy) | 4+ (4+: 95-100% Efficacy) | amount of food eaten at dinner [2]: only half the amount of food they usually would consume; time after topical application until loss of appetite for food was felt [2]: 50 to 60 min; itch [3]: stopped within a few minutes; improvement of treated lesions as judged by clinical evaluation [4]: 40-50%; increase in skin thickness ([5]; Example 8: subject, severe photodamage, right wrist distal, 0.5% (w/v) in WEP721 three times daily, 7 days): 5-10%; increased skin thickness ([5]; Example 20: subject, photoaging forearms, 0.8% (w/v) in WEP442 three times daily, four weeks): ~15%; increased skin thickness ([5]; Example 20: subject, photoaging forearms, 1% (w/v) in WEP442 three times daily, four weeks): ~28%; increased skin thickness ([5]; Example 21: subject, sun damaged forearms, 1% (w/v) in WEP442 three times daily, one week): ~24%; inter-metacarpal atrophy of left hand, maintenance therapy [6]: continued to improve with no signs of inter-metacarpal atrophy
3 | N-Pr-L-Ala-L-Leu-L-Lys-L-His-L-Arg-NH2 (ALKHR; HELM PEPTIDE1{[CCC(=O)[*:2]].A.L.K.H.R.[am]}$$$$V2.0; SMILES CCC(=O)N[C@@H](C)C(=O)N[C@@H](CC(C)C)C(=O)N[C@@H](CCCCN)C(=O)N[C@@H](Cc1c[nH]cn1)C(=O)N[C@@H](CCCNC(=N)N)C(N)=O) | 2+ (2+: 50% Efficacy) | 2+ (2+: 50% Efficacy) | 2+ (2+: 50% Efficacy) | 2+ (2+: 50% Efficacy) | –
4 | N-Ac-L-Val-L-Tyr-L-Tyr-NH2 | 3+ (3+: 75% Efficacy) | 2+ (2+: 50% Efficacy) | 2+ (2+: 50% Efficacy) | 4+ (4+: 95-100% Efficacy) | effect on anxiety, stress and mood disorders [7]: anxiety, stress and mood disorders started to disappear
5 | N-Ac-L-Val-L-Val-L-Ala-NH2 | 2+ (2+: 50% Efficacy) | 2+ (2+: 50% Efficacy) | 2+ (2+: 50% Efficacy) | 3+ (3+: 75% Efficacy) | –
6 | N-Bz-L-Ala-L-Leu-L-Lys-L-His-L-Arg-NH2 (ALKHR; HELM PEPTIDE1{[O=C(c1ccccc1)[*:2]].A.L.K.H.R.[am]}$$$$V2.0; SMILES CC(C)C[C@H](NC(=O)[C@H](C)NC(=O)c1ccccc1)C(=O)N[C@@H](CCCCN)C(=O)N[C@@H](Cc1c[nH]cn1)C(=O)N[C@@H](CCCNC(=N)N)C(N)=O) | 4+ (4+: 95-100% Efficacy) | 3+ (3+: 75% Efficacy) | 3+ (3+: 75% Efficacy) | 2+ (2+: 50% Efficacy) | –
7 | N-Ac-L-Ala-L-Leu-L-Lys-L-His-L-Arg-NH2 (Ac-ALKHR-NH2) | 3+ (3+: 75% Efficacy) | 4+ (4+: 95-100% Efficacy) | 3+ (3+: 75% Efficacy) | 3+ (3+: 75% Efficacy) | itch ([8]; 0.2% (w/v) in WEP442 pH 3.4 topical): stopped within a few minutes; improvement as judged by clinical evaluation ([8]; right leg, 0.2% (w/v) in WEP442 pH 3.4 twice daily, 2 weeks): 80-90%
8 | N-Ac-L-Ser-L-Ser-L-Ser-NH2 | 2+ (2+: 50% Efficacy) | 2+ (2+: 50% Efficacy) | 2+ (2+: 50% Efficacy) | 2+ (2+: 50% Efficacy) | –
